Literature values in patent US20020054922A1, “Cosmetic composition and method” (priority 2000, published 2002).

Test system: skin punch biopsy wound
Settings: 25 micrograms estradiol per 24 hours by skin patch

## C[C@]12CC[C@@H]3c4ccc(O)cc4CC[C@H]3[C@@H]1CC[C@@H]2O [estrogen, estradiol]
Day 7
  fibronectin levels compared to placebo: increased fibronectin levels
Day 7, aged men and women
  wound size compared to placebo: decrease in wound size
Days 7 and 80
  collagen levels compared to placebo: increased collagen levels
